The record followed here is patent US9732119B2, “Immunomodulators” (BRISTOL-MYERS SQUIBB COMPANY, priority 2014, dated 2017).

Molecules are shown by their SMILES. Positions of bridges follow the written chain, without caps; N, C: chain ends. Non-standard residues stand in square brackets, D forms with d. Residues, ends and D or L forms follow the SMILES beside them. Trp(1-CH2COOH) = N[C@@H](Cc1cn(CC(=O)O)c2ccccc12)C(=O)O; Phe(4-Cl) = N[C@@H](Cc1ccc(Cl)cc1)C(=O)O; Phe(4-F) = N[C@@H](Cc1ccc(F)cc1)C(=O)O; Phe(4-Me) = Cc1ccc(C[C@H](N)C(=O)O)cc1; Hyp = O=C(O)[C@@H]1C[C@@H](O)CN1; Aad = N[C@@H](CCCC(=O)O)C(=O)O; NMeNle = CCCC[C@H](NC)C(=O)O; Pip = O=C(O)[C@@H]1CCCCN1; Dab = NCC[C@H](N)C(=O)O; Dap = NC[C@H](N)C(=O)O; Ava = NCCCCC(=O)O

The target of the assay is T1, PD-1-Ig binding to PD-L1-TVMV-His (PD-L1-His) (Homo sapiens, UniProt Q9NZQ7).
T1 construct: hPDL1(19-239)-TVMV-His; made in house; host or cells: HEK293T cells
T1 sequence (Q9NZQ7 with tags, fused parts or gaps): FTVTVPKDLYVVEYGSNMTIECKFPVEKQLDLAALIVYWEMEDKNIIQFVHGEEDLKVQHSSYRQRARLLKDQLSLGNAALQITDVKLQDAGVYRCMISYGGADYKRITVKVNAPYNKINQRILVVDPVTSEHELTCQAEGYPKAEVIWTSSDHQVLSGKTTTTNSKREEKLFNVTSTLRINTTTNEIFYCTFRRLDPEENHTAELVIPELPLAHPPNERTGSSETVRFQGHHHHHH
As to the kind of experiment: PD-1/PD-L1 Homogenous Time-Resolved Fluorescence (HTRF) binding assay. To be noted: PD-1-Ig (20 nM) / PD-L1-His (10 nM); range classes. In outline:
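In dPBS with 0.1% BSA and 0.05% Tween-20, inhibitors were preincubated 15 min with 10 nM PD-L1-His before 20 nM PD-1-Ig was added for another 15 min. Binding read by time-resolved FRET between Eu-cryptate anti-Ig (1 nM) and APC anti-His (20 nM).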

As for `CCCC[C@H]1C(=O)N(C)[C@@H](CCCC)C(=O)N[C@@H](CC(C)C)C(=O)N[C@H](C(N)=O)COCC(=O)N[C@@H](Cc2ccc(O)cc2)C(=O)N2CCCC[C@H]2C(=O)N[C@@H](CC(N)=O)C(=O)N2CCC[C@H]2C(=O)N[C@@H](CN)C(=O)N[C@@H](CC(C)C)C(=O)N2C[C@H](O)C[C@H]2C(=O)N[C@@H](Cc2c[nH]c3ccccc23)C(=O)N[C@@H](CCN)C(=O)N[C@@H](Cc2cn(CC(=O)O)c3ccccc23)C(=O)N1C` [Example 10533], the 50% inhibitory concentration (IC50) fell in the range of 1 to 9.9 nM.
For `CCCC[C@H]1C(=O)N(C)[C@@H](CCCC)C(=O)N[C@@H](CC(C)C)C(=O)N[C@H](C(N)=O)CCCC(=O)N[C@@H](Cc2ccc(Cl)cc2)C(=O)N2CCCC[C@H]2C(=O)N[C@@H](CC(N)=O)C(=O)N2CCC[C@H]2C(=O)N[C@@H](CN)C(=O)N[C@@H](CC(C)C)C(=O)N2C[C@H](O)C[C@H]2C(=O)N[C@@H](Cc2c[nH]c3ccccc23)C(=O)N[C@@H](CCN)C(=O)N[C@@H](Cc2cn(CC(=O)O)c3ccccc23)C(=O)N1C` [Example 10534] ([Phe(4-Cl)][Pip]NP[Dap]L[Hyp]W[Dab][Trp(1-CH2COOH)][NMeNle][NMeNle]L[Aad]-NH2; lactam N-14) the value was 1 to 9.9 nM; for `CCCC[C@H]1C(=O)N(C)[C@@H](CCCC)C(=O)N[C@@H](CC(C)C)C(=O)NCCCCC(=O)N[C@@H](Cc2ccc(OC)cc2)C(=O)N2CCCC[C@H]2C(=O)N[C@@H](CC(N)=O)C(=O)N2CCC[C@H]2C(=O)N[C@@H](CN)C(=O)N[C@@H](CC(C)C)C(=O)N2C[C@H](O)C[C@H]2C(=O)N[C@@H](Cc2c[nH]c3ccccc23)C(=O)N[C@@H](CCN)C(=O)N[C@@H](Cc2cn(CC(=O)O)c3ccccc23)C(=O)N1C` [Example 10535] (cyclo([Ava]Y(Me)[Pip]NP[Dap]L[Hyp]W[Dab][Trp(1-CH2COOH)][NMeNle][NMeNle]L)), 1 to 9.9 nM.
`CCCC[C@H]1C(=O)N(C)[C@@H](CCCC)C(=O)N[C@@H](CC(C)C)C(=O)NCCCCC(=O)N[C@@H](Cc2ccc(F)cc2)C(=O)N2CCCC[C@H]2C(=O)N[C@@H](CC(N)=O)C(=O)N2CCC[C@H]2C(=O)N[C@@H](CN)C(=O)N[C@@H](CC(C)C)C(=O)N2C[C@H](O)C[C@H]2C(=O)N[C@@H](Cc2c[nH]c3ccccc23)C(=O)N[C@@H](CCN)C(=O)N[C@@H](Cc2cn(CC(=O)O)c3ccccc23)C(=O)N1C` [Example 10536] (cyclo([Ava][Phe(4-F)][Pip]NP[Dap]L[Hyp]W[Dab][Trp(1-CH2COOH)][NMeNle][NMeNle]L)) had a concentration for half-maximal inhibition (IC50) of 1 to 9.9 nM.
As for `CCCC[C@H]1C(=O)N(C)[C@@H](CCCC)C(=O)N[C@@H](CC(C)C)C(=O)NCCCCC(=O)N[C@@H](Cc2ccc(Cl)cc2)C(=O)N2CCCC[C@H]2C(=O)N[C@@H](CC(N)=O)C(=O)N2CCC[C@H]2C(=O)N[C@@H](CN)C(=O)N[C@@H](CC(C)C)C(=O)N2C[C@H](O)C[C@H]2C(=O)N[C@@H](Cc2c[nH]c3ccccc23)C(=O)N[C@@H](CCN)C(=O)N[C@@H](Cc2cn(CC(=O)O)c3ccccc23)C(=O)N1C` [Example 10537] (cyclo([Ava][Phe(4-Cl)][Pip]NP[Dap]L[Hyp]W[Dab][Trp(1-CH2COOH)][NMeNle][NMeNle]L)), the IC50 was in the range of 10 to 99 nM.
For `CCCC[C@H]1C(=O)N(C)[C@@H](CCCC)C(=O)N[C@@H](CC(C)C)C(=O)N[C@H](C(N)=O)COCC(=O)N[C@@H](Cc2ccc(C)cc2)C(=O)N2CCCC[C@H]2C(=O)N[C@@H](CC(N)=O)C(=O)N2CCC[C@H]2C(=O)N[C@@H](CN)C(=O)N[C@@H](CCC(=O)O)C(=O)N2C[C@H](O)C[C@H]2C(=O)N[C@@H](Cc2c[nH]c3ccccc23)C(=O)N[C@@H](CCN)C(=O)N[C@@H](Cc2cn(CC(=O)O)c3ccccc23)C(=O)N1C` [Example 10538] the value was 1 to 9.9 nM.
`CCCC[C@H]1C(=O)N(C)[C@@H](CCCC)C(=O)N[C@@H](CC(C)C)C(=O)NCCCCC(=O)N[C@@H](Cc2ccc(C)cc2)C(=O)N2CCCC[C@H]2C(=O)N[C@@H](CC(N)=O)C(=O)N2CCC[C@H]2C(=O)N[C@@H](CN)C(=O)N[C@@H](CC(C)C)C(=O)N2C[C@H](O)C[C@H]2C(=O)N[C@@H](Cc2c[nH]c3ccccc23)C(=O)N[C@@H](CCN)C(=O)N[C@@H](Cc2cn(CC(=O)O)c3ccccc23)C(=O)N1C` [Example 10540] (cyclo([Ava][Phe(4-Me)][Pip]NP[Dap]L[Hyp]W[Dab][Trp(1-CH2COOH)][NMeNle][NMeNle]L)) came in with an IC50 of 1 to 9.9 nM.
For `CCCC[C@H]1C(=O)N(C)[C@@H](CCCC)C(=O)N[C@@H](CC(C)C)C(=O)NCCCCC(=O)N[C@@H](Cc2ccc(C)cc2)C(=O)N2CCCC[C@H]2C(=O)N[C@@H](CC(N)=O)C(=O)N2CCC[C@H]2C(=O)N[C@@H](CN)C(=O)N[C@@H](CCC(=O)O)C(=O)N2C[C@H](O)C[C@H]2C(=O)N[C@@H](Cc2c[nH]c3ccccc23)C(=O)N[C@@H](CCN)C(=O)N[C@@H](Cc2cn(CC(=O)O)c3ccccc23)C(=O)N1C` [Example 10541] (cyclo([Ava][Phe(4-Me)][Pip]NP[Dap]E[Hyp]W[Dab][Trp(1-CH2COOH)][NMeNle][NMeNle]L)) the value was 1 to 9.9 nM; for `CCCC[C@H]1C(=O)N(C)[C@@H](CCCC)C(=O)N[C@@H](CC(C)C)C(=O)NCCCCC(=O)N[C@@H](Cc2ccc(OC)cc2)C(=O)N2CCCC[C@H]2C(=O)N[C@@H](CC(N)=O)C(=O)N2CCC[C@H]2C(=O)N[C@@H](CN)C(=O)N[C@@H](CCC(=O)O)C(=O)N2C[C@H](O)C[C@H]2C(=O)N[C@@H](Cc2c[nH]c3ccccc23)C(=O)N[C@@H](CCN)C(=O)N[C@@H](Cc2cn(CC(=O)O)c3ccccc23)C(=O)N1C` [Example 10542] (cyclo([Ava]Y(Me)[Pip]NP[Dap]E[Hyp]W[Dab][Trp(1-CH2COOH)][NMeNle][NMeNle]L)), 1 to 9.9 nM.
Consider `CCCC[C@H]1C(=O)N(C)[C@@H](CCCC)C(=O)N[C@@H](CC(C)C)C(=O)NCCCCC(=O)N[C@@H](Cc2ccc(F)cc2)C(=O)N2CCCC[C@H]2C(=O)N[C@@H](CC(N)=O)C(=O)N2CCC[C@H]2C(=O)N[C@@H](CN)C(=O)N[C@@H](CCC(=O)O)C(=O)N2C[C@H](O)C[C@H]2C(=O)N[C@@H](Cc2c[nH]c3ccccc23)C(=O)N[C@@H](CCN)C(=O)N[C@@H](Cc2cn(CC(=O)O)c3ccccc23)C(=O)N1C` [Example 10543] (cyclo([Ava][Phe(4-F)][Pip]NP[Dap]E[Hyp]W[Dab][Trp(1-CH2COOH)][NMeNle][NMeNle]L)), for which the IC50 is 1 to 9.9 nM.
The value for `CCCC[C@H]1C(=O)N(C)[C@@H](CCCC)C(=O)N[C@@H](CC(C)C)C(=O)NCCCCC(=O)N[C@@H](Cc2ccc(Cl)cc2)C(=O)N2CCCC[C@H]2C(=O)N[C@@H](CC(N)=O)C(=O)N2CCC[C@H]2C(=O)N[C@@H](CN)C(=O)N[C@@H](CCC(=O)O)C(=O)N2C[C@H](O)C[C@H]2C(=O)N[C@@H](Cc2c[nH]c3ccccc23)C(=O)N[C@@H](CCN)C(=O)N[C@@H](Cc2cn(CC(=O)O)c3ccccc23)C(=O)N1C` [Example 10544] (cyclo([Ava][Phe(4-Cl)][Pip]NP[Dap]E[Hyp]W[Dab][Trp(1-CH2COOH)][NMeNle][NMeNle]L)) was 1 to 9.9 nM.
